From patent US20210267996A1, “Compounds for inhibition of inflammation” (Children`s Medical Center Corporation, priority 2018, published 2021)
Entries after “also recorded” stand apart in the source; their conditions may differ. Structures can show the parent of a compound that is named as a salt. Where two headings read alike, the source gives them in different places.

Legend:
HT-29 cells = assay: Necroptosis induced by TNFα, SMAC mimetic and z-VAD-fmk; assay type: cell-based; conditions: SMAC mimetic
Description: Inhibition was shown by cell survival, assessed by CellTiter-Glo ATP luminescence, and membrane permeabilization, assessed by uptake of the membrane-impermeable dye SYTOX Green.

Human GSDMD = molecular target: T1, Human GSDMD (Homo sapiens, UniProt P57764); assay: Liposome leakage assay (Tb3+/DPA), GSDMD plus caspase-11; assay type: biochemical
T1 construct: His6-MBP (N, cleaved yes); made in house; host or cells: E. coli BL21 (DE3) for GSDMD; Sf9 for caspase-11
T1 sequence (P57764 1-484): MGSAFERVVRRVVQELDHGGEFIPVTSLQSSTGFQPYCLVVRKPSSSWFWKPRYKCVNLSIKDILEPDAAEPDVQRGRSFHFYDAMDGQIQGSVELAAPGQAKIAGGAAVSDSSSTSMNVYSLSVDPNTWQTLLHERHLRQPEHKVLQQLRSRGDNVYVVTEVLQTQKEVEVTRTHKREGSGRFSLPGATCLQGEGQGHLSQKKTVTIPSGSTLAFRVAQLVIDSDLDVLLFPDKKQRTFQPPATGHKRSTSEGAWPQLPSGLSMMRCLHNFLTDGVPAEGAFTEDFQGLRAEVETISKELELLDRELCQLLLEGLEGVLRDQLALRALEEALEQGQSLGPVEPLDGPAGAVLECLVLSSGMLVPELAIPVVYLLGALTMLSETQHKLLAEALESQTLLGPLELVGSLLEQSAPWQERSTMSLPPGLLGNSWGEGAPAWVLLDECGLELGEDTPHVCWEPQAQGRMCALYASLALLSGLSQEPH
Procedure: The lipid mixture was suspended in 1 mL Buffer A (20 mM HEPES, 150 mM NaCl, 50 mM sodium citrate, and 15 mM TbCl3) for 3 min. The suspension was pushed through 100 nm Whatman® Nuclepore™ Track-Etched Membrane 30 times to obtain homogeneous liposomes. The filtered suspension was purified by size exclusion column (Superose 6, 10/300 GL) in Buffer B (20 mM HEPES, 150 mM NaCl) to remove TbCl3 outside liposomes. […] The liposomes are diluted to 50 μM with Buffer C (20 mM HEPES, 150 mM NaCl and 50 μM DPA) for use in high-throughput screening.

mouse iBMDMs [1] = assay: Non-canonical inflammasome pyroptosis, iBMDMs with LPS electroporation; assay type: cell-based
Procedure: Cell lines and treatments: THP-1 cells and HEK293T cells (obtained from ATCC) were grown in RPMI with 10% heat-inactivated fetal bovine serum, supplemented with 100 U/ml penicillin G, 100 μg/ml streptomycin sulfate, 6 mM HEPES, 1.6 mM L-glutamine, and 50 μM 2ME. C57BL/6 mouse iBMDM cells were kindly provided by J. Kagan (Boston Children's Hospital) and cultured in DMEM with the same supplements. Cells were verified to be free of mycoplasma contamination. Transient transfection of HEK293T cells was performed using Lipofectamine 2000 (Invitrogen) according to the manufacturer's instructions. iBMDM cells were transfected by nucleofection using the Amaxa Nucleofector kit (VPA-1009). […] To examine IκBα. phosphorylation and degradation as well as IL-1β induction, PMA-differentiated THP-1 cells were stimulated with LPS (1 μg/ml) for 0.5, 1 and 4 hrs, respectively. For noncanoical inflammasome activation, 1 million iBMDM cells were electroporated with 1 μg ultra LPS.
Cytotoxicity and cell viability assays: cell death and cell viability were determined by the lactate dehydrogenase release assay using the CytoTox 96 Non-Radioactive Cytotoxicity Assay kit (Promega) and by measuring ATP levels using the CellTiter-Glo Luminescent Cell Viability Assay (Promega), respectively, according to the manufacturer's instructions. Luminescence and absorbance were measured on a BioTek Synergy 2 plate reader.
In FIGS. 4, 6, and 8, PMA-differentiated LPS-primed human THP-1 were pre-treated with indicated concentrations of each compound for 1 h before adding nigericin or medium. The number of surviving cells was determined by CellTiter-Glo assay (FIGS. 4 and 6) and IL-1β in culture supernatants was assessed by ELISA (FIG. 8) 2 hrs later. In FIGS. 5, 7, and 9, mouse iBMDMs were pre-treated with each test compound for 1 hr before electroporation with PBS or LPS. The number of surviving cells was determined by CellTiter-Glo assay (FIGS. 5 and 7) and IL-1β in culture supernatants was assessed by ELISA (FIG. 9) 2.5 hrs later. In FIGS. 8 and 9, 40 μM concentration of test compounds were added.

THP-1 cells = assay: Canonical inflammasome pyroptosis, LPS-primed THP-1 cells plus nigericin; assay type: cell-based, human; conditions: for inhibition of canonical inflammasome pyroptosis: THP-1, nigericin
Procedure: Cell viability assay. […] Primed THP-1 cells were pretreated with each test compound for 1 hr before addition of 20 μM nigericin or medium as control. The number of surviving cells was determined by CellTiter-Glo assay 1.5 hrs later. The final percent cell viability was calculated using the formula [(luminescencetest compound−luminescencencenegative control)/(luminescencencepositive control−luminescencenegative control)]×100, where wells with only LPS were used as positive controls and wells treated with LPS and nigericin were used as negative controls.
In FIGS. 4, 6, and 8, PMA-differentiated LPS-primed human THP-1 were pre-treated with indicated concentrations of each compound for 1 h before adding nigericin or medium. The number of surviving cells was determined by CellTiter-Glo assay (FIGS. 4 and 6) and IL-1β in culture supernatants was assessed by ELISA (FIG. 8) 2 hrs later. […] In FIGS. 8 and 9, 40 μM concentration of test compounds were added. […] Graphs show the mean±s.d. and data shown are representative of three independent experiments. **P<0.01.

mouse iBMDMs [2] = assay: Processing of caspase-1, GSDMD and IL-1β in iBMDMs (immunoblot); assay type: cell-based; conditions: 1 hr time point
Procedure: (§1) FIG. 97 contains a bar graph showing results of an experiment where LPS-primed THP-1 cells, after medium removal, were incubated with probe FAM-YVAD-FMK in FLICA assay buffer for another 0.5 hr before fluorescence reading. iBMDMs were pretreated with disulfiram, Bay 11-7082, necrosulfonamide (NSA) or z-VAD-fmk for 1 hr before treated or not with Nigericin for 0.5 hr. Whole cell lysates and culture supernatants were immunoblotted with the indicated antibodies.
as §1, with “FIG. 98” for “FIG. 97”, “for 1” for “for 0.5”
Canonical inflammasome assembly activates caspase-1, which cleaves pro-IL-1β and GSDMD, and the latter is needed to release processed IL-1β and to induce pyroptosis. To assess which steps in NLRP3-mediated inflammation were inhibited post ASC speck formation, LPS-primed THP-1 cells were treated with vehicle, 30 μM z-VAD-fmk or disulfiram 1 hour before adding nigericin, and cleavage and activation of caspase-1, GSDMD, and pro-IL-1β were analysed by immunoblot of whole cell lysates 30 min later and 1 hr later. Secretion of processed IL-1β was also assessed by immunoblot of culture supernatants. […] The 1 hr time point is relevant as the cell death and IL-1β release measurements used cells stimulated with nigericin for 1 and 2 hrs, respectively.

[3] = Table 2, leakage assay, read-out: IC50

CN1C(=O)C(Cc2c[nH]c3ccccc23)NC1=S (stereo not shown) [necrostatin-1]
necroptosis (HT-29 cells): blocked

S=C(SSC(=S)N1CCOCC1)N1CCOCC1 [C-23A7, di(4-morpholinyl)dithioperoxyanhydride]
IC50 (Human GSDMD; [3]): 250 ± 10 nM

Cc1ccc(N(C)C(=S)SSC(=S)N(C)c2ccc(C)cc2)cc1 [C-23A6, N,N′-Dimethyl-N,N′-(4,4′-dimethyldiphenyl)thiuram disulfide]
IC50 (Human GSDMD; [3]): 350 ± 30 nM

COc1ccc(-c2cc(=S)ss2)cc1 [C-22]
inhibition of non-canonical inflammasome pyroptosis (mouse iBMDMs [1]): Only C-23 blocked pyroptosis
inhibition of canonical inflammasome pyroptosis (THP-1 cells): Only C-23 blocked pyroptosis

S=C(SSC(=S)N1CCCC1)N1CCCC1 [C-23A10, pyrrolidine-1-carbothioic dithioperoxyanhydride]
IC50 (Human GSDMD; [3]): 260 ± 20 nM

CCCCN(CCCC)C(=S)SSC(=S)N(CCCC)CCCC [C-23A3, tetrabutylthiuram disulfide]
IC50 (Human GSDMD; [3]): 460 ± 80 nM

CN(C(=S)SSC(=S)N(C)c1ccccc1)c1ccccc1 [C-23A11, dimethyldiphenylthiuram disulfide]
IC50 (Human GSDMD; [3]): 370 ± 10 nM

COc1nccnc1NS(=O)(=O)c1ccc(NC(=O)/C=C/c2ccc([N+](=O)[O-])s2)cc1 [necrosulfonamide]
times less active than disulfiram at inhibiting liposome leakage (Human GSDMD; GSDMD plus caspase-11): about 30 fold
IC50 (Human GSDMD; WT GSDMD, caspase-11-triggered, read-out: IC50 of liposome leakage): 9500 ± 430 nM
necroptosis (HT-29 cells): blocked
processing of caspase-1, GSDMD and IL-1β (mouse iBMDMs [2]): still inhibited processing

S=C(SSC(=S)N1CCCCC1)N1CCCCC1 [C-23A9, dicyclopentamethylenethiuram disulfide]
IC50 (Human GSDMD; [3]): 260 ± 3 nM

S=C(SSC(=S)N(Cc1ccccc1)Cc1ccccc1)N(Cc1ccccc1)Cc1ccccc1 [C-23A12, Tetrabenzylthiuram disulfide]
IC50 (Human GSDMD; [3]): 2930 ± 1070 nM

COC(=O)/C=C/C(=O)OC [DMF, dimethyl fumarate]
activity against GSDMD (Human GSDMD; Cys-reactive comparison compounds): lack of activity

CN(C(=S)SSC(=S)N(C)c1ccncc1)c1ccncc1 [C-23A8, N,N′-Dimethyl-N,N′-di(4-pyridinyl)thiuram disulfide]
IC50 (Human GSDMD; [3]): 1250 ± 10 nM

S=C(SSC(=S)N(c1ccccc1)c1ccccc1)N(c1ccccc1)c1ccccc1 [C-23A5, Tetraphenylthiuram disulfide]
IC50 (Human GSDMD; [3]): 3740 ± 1060 nM

CC(C)N(C(=S)SSC(=S)N(C(C)C)C(C)C)C(C)C [C-23A2, Tetraisopropylthiuram disulfide]
IC50 (Human GSDMD; [3]): 370 ± 10 nM

CCN(CC)C(=S)S [DTC, diethyldithiocarbamate]
effect of copper gluconate (Cu2+) on inhibition of liposome leakage (Human GSDMD; with Cu2+): only weakly increased
activity in cells in the presence of Cu2+ (THP-1 cells; with Cu2+): almost as active as C-23; also recorded: almost as active as disulfiram
effect of Cu2+ on protection of LPS-primed THP-1 cells from pyroptosis (THP-1 cells; with Cu2+): strongly promoted

CN1CCN(C(=S)SSC(=S)N2CCN(C)CC2)CC1 [C-23A4, 4-Methylpiperazine-1-carbothioic dithioperoxyanhydride]
IC50 (Human GSDMD; [3]): 260 ± 10 nM

Cc1c(-c2cnccn2)ssc1=S [C-24]
inhibition of non-canonical inflammasome pyroptosis (mouse iBMDMs [1]): Only C-23 blocked pyroptosis
inhibition of canonical inflammasome pyroptosis (THP-1 cells): Only C-23 blocked pyroptosis

CN(C)C(=S)SSC(=S)N(C)C [C-23A1, tetramethylthiuram disulfide]
IC50 (Human GSDMD; [3]): 220 ± 10 nM
